The record followed here is patent publication US20230348467A1, “Heteroaryl Derivative, Preparation Method Therefor, And Use Thereof” (Zhejiang Hisun Pharmaceutical Co., Ltd., priority 2020, published 2023).

Data set [1] addresses recombinant human full-length SHP2 (Homo sapiens (Human), UniProt Q06124). Description: Allosteric inhibition of full-length SHP2 enzyme (DiFMUP fluorescence). It counts as biochemical. As to conditions: full-length SHP2 0.5 nM, activating peptide 0.5 uM, DiFMUP substrate. An excerpt:
The following method was used to determine the inhibition degrees of the compounds of the present invention on the activity of recombinant human full-length SHP2 in vitro. SHP2 was allosterically activated by the binding of di-tyrosyl-phosphorylated peptide to a Src homologous 2(SH2) domain of SHP2. An activation step of the latter leads to the self-inhibitory interface release of SHP2, and then activates SHP2 protein tyrosine phosphatase (PTP), which might be used for substrate recognition and reaction catalysis.
The experimental process was briefly described as follows: Test compounds were first dissolved in DMSO to prepare storage solutions. […] Then, the compounds to be tested were added in a concentration range of 0.00004-10 uM and incubated at 25° C. for 60 minutes. Then DiFMUP (Thermo, D6567) was added in the reaction and incubated at 25° C. for 30 minutes. After incubation, readings were taken using a microplate reader (BMG) with excitation and emission wavelengths of 340 nm and 450 nm, respectively.

Data set [2] relates to NCI-H358 cells (containing KRAS G12C mutation). Put plainly: Inhibition of NCI-H358 cell proliferation (CellTiter-Glo). Format: cell-based. To be noted: Homo sapiens, NCI-H358, 120 h, read-out: IC50(nM)/NCI-H358. Here is the method:
The following method was used to determine the effects of the compounds of the present invention on NCI-H358 cell proliferation. NCI-H358 cells (containing KRAS G12C mutation) were purchased from Cell Resource Center of Shanghai Institutes for Biological Sciences, Chinese Academy of Sciences, and cultured in RPMI 1640 mediums containing 10% fetal bovine serum, 100 U penicillin, 100 μg/mL streptomycin and 1 mM Sodium Pyruvate. The activities of the cells were determined by CellTiter-Glo® Luminescent Cell Viability Assay kit (Promega, article number: G7573).
(§1) The experimental method was operated according to the steps in the kit instruction, and was briefly described as follows: test compounds were first dissolved in DMSO to prepare storage solutions of 10 mM, and then diluted in mediums, prepared as test samples. The final concentrations of the test compounds were 10,000 nM to 1.52 nM. The cells in logarithmic phase were inoculated in a 96-well cell culture plate with 1,000 cells per well, after cultured overnight in 5% CO2 incubator at 37° C., the test compounds were added to the incubator to continue the culture for 120 hours. After the culture, 50 μL of CellTiter-Glo detection solution was added to each well, shaken for 5 minutes, and then stood for 10 minutes. Then, a Luminescence mode was used to read the luminescence values of each well of the samples on a microplate reader. Compared with the numerical value of the control group (0.3% DMSO), the percentage inhibition rates of the compounds at each concentration were calculated, and the IC50 values of the compounds inhibiting cell proliferation were obtained by performing nonlinear regression analysis with logarithmic values of the compound concentration—inhibition rate by GraphPad Prism 5 software, which was shown in Table 3.
(In general: Cellular ATP, detected with luciferase, serves as a proxy for viable cell number.)

The test system of data set [3] is NCI-H23 cells (containing KRAS G12C mutation). Put plainly: Inhibition of NCI-H23 cell proliferation (CellTiter-Glo). It counts as cell-based. As to conditions: Homo sapiens, 120 hours culture. Here is the method:
The following method was used to determine the effects of the compounds of the present invention on NCI-H23 cell proliferation. NCI-H23 cells (containing KRAS G12C mutation) were purchased from Cell Resource Center of Shanghai Institutes for Biological Sciences, Chinese Academy of Sciences, and cultured in RPMI 1640 mediums containing 10% fetal bovine serum, 100 U penicillin, 100 μg/mL streptomycin and 1 mM Sodium Pyruvate. The activities of the cells were determined by CellTiter-Glo® Luminescent Cell Viability Assay kit (Promega, article number: G7573).
as §1, with “value of a control group” for “value of the control group”, “in Table 2.” for “in Table 3.”

Data set [4] can be described thus: Pharmacokinetic test in ICR mice, intragastric (Test Example 4). It counts as in vivo. To be noted: PO; for AUC(0-inf) / Cmax: mouse, 10 mg/kg per table (method text says 1 mg/kg), plasma; for AUC(0-inf): read-out: Area under curve AUC0-∞; for Cmax: read-out: Blood concentration Cmax. From the text: ICR mice were used as test animals, and LC/MS/MS methods was used to determine the drug concentrations at different moments in plasma of mice administered by intragastric injection with the compound 5 and the compound 6 of the present invention, and to study the pharmacokinetic characteristics of the compounds of the present invention in mice. An appropriate amount of drug was weighed, added with an appropriate amount of sodium carboxymethylcellulose (CMC-Na, containing 0.5% Tween 80), vortexed, and ultrasonically prepared into 1 mg/kg suspension. The ICR mice in the intragastric group of each compound to be tested (9 mice in each group) were fasted overnight and then administered by intragastric injection (PO, […], and administration volume of 10 mL/kg), and ate 4 hours after administration. About 0.2 mL of blood was collected via jugular vein before administration and 0.083 hour, 0.25 hour, 0.5 hour, 1 hour, 2 hours, 4 hours, 8 hours and 24 hours after administration, and heparin sodium was used for anticoagulation. The collected blood samples were placed on ice, and plasma was separated by centrifugation (centrifugation condition: 1,500 g, 10 minutes). The collected plasma samples were stored at −40° C. to −20° C. before analysis. LC-MS/MS was used to determine the contents of the compounds to be tested in mouse plasma after intragastric administration.

Data set [5] concerns NCI-H358 subcutaneous transplanted tumors. Put plainly: Growth inhibition of subcutaneous transplanted NCI-H358 tumors in BALB/c nude mice. It counts as in vivo. The method, then: To evaluate antitumor effects and safety of the compounds of Example 27 in an animal model of BALB/c nude mice with subcutaneous transplanted NCI-H358 cell lines
An approximate amount of the compound of Example 27 was weighed, added with an approximate amount of DMA (dimethylacetamide) to fully dissolve the compound, then added with Solutol HS 15 and Saline (DMA: Solutol HS 15: Saline=5:10:85 (v/v/v)) in turn, and mixed evenly by vortex, and the configuration concentration was 3 mg/mL.
BALB/c nude mice, female, 6-7 weeks old (the age of mice when tumor cells were inoculated), 12 mice, purchased from Jiangsu GemPharmatech.
NCI-H358 cells were cultured in RPMI 1640 mediums containing 10% fetal bovine serum, 1% sodium pyruvate and 1% glutamine. NCI-H358 cells in exponential growth period were collected, and resuspend in PBS to a suitable concentration for subcutaneous tumor inoculation in nude mice.
12 female BALB/c nude mice were subcutaneously inoculated with about 3×10^6 NCI-H358 cells on the right sides of their backs. When the average volume of tumors reaches about 100 mm^3 to 200 mm^3, the mice were randomly divided according to tumor sizes with 6 mice in each group. The animals in each group were given the subjects once a day (qd) according to the animal body weights at a fixed time every day according to the table below, administered orally (po) for 10 consecutive days, and the daily body weights were recorded.
After tumor inoculation, routine monitoring included the effects of tumor growth and treatment on the normal behaviors of the animals, specifically the mobility, feeding and drinking, weight gain or loss, eyes, coat and other abnormalities of the experimental animals.
(1) TV (tumor volume)=½×a×b^2, wherein a and b represent the length and the width of the tumor respectively;
(2) RTV (relative tumor volume)=Vt/V0, wherein V0 is the tumor volume measured at the time of grouping administration (i.e., d0), and Vt is the tumor volume at each measurement;
(3) Relative tumor proliferation rate T/C (%)=TRTV/CRTV×100%, wherein TRTV is the RTV of the treatment group and CRTV is the RTV of the control group;

A short description of data set [6]: Pharmacokinetic test of mice, intragastric (Test Example 5). It counts as in vivo. As to conditions: ICR mice, PO, 5 mg/kg. An excerpt:
ICR mice were used as test animals, and LC/MS/MS methods was used to determine the drug concentrations at different moments in plasma of mice administered by intragastric injectiion with the compound 27 of the present invention, and to study the pharmacokinetic characteristics of the compound of the present invention in mice. An appropriate amount of drug compound 27 was weighed, added with an appropriate amount of sodium carboxymethylcellulose (CMC-Na, containing 0.5% Tween 80), vortexed, and ultrasonically prepared into 0.5 mg/kg suspension. The ICR mice in the intragastric group of each compound to be tested (9 mice in each group) were fasted overnight and then administered by intragastric injection (PO, administration dose of the compound 27 was 5 mg/kg, and administration volume of the compound 27 was 10 mL/kg), and ate 4 hours after administration. About 0.2 mL of blood was collected via jugular vein before administration and 0.083 hour, 0.25 hour, 0.5 hour, 1 hour, 2 hours, 4 hours, 8 hours, 12 hours and 24 hours after administration, and heparin sodium was used for anticoagulation. The collected blood samples were placed on ice, and plasma was separated by centrifugation (centrifugation condition: 1,500 g, 10 minutes). The collected plasma samples were stored at −40° C. to −20° C. before analysis. LC-MS/MS was used to determine the content of the compound to be tested in mouse plasma after intragastric administration.

Setting [7] is: Day 10, 30 mg/kg po qd for 10 days.

Sequence of recombinant human full-length SHP2 (Q06124 whole entry): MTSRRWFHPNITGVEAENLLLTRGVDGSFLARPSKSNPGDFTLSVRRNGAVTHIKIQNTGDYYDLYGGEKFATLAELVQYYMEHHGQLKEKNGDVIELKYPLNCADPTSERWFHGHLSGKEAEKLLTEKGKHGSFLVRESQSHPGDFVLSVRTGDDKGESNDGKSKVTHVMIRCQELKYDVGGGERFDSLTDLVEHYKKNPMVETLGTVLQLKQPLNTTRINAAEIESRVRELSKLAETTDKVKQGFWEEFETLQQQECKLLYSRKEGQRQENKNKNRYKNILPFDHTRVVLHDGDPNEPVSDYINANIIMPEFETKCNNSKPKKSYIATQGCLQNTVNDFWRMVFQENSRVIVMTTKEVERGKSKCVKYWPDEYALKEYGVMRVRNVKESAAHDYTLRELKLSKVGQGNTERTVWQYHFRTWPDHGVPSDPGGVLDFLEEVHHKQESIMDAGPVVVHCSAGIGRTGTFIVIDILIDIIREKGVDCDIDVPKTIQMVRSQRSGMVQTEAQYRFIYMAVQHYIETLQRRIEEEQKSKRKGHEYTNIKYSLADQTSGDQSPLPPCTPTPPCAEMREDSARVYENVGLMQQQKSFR

For `NC(=O)c1nc(N2CCC(N)(c3ccccc3)CC2)nc2[nH]nc(-c3cccc(Cl)c3Cl)c12` [Example 6, 6-(4-amino-4-phenylpiperidin-1-yl)-3-(2,3-dichlorophenyl)-1H-pyrazolo[3,4-d]pyrimidine-4-carboxamide], the IC50 in data set [1] worked out at 4 nM; in data set [2] it was 19 nM; in data set [3] it was 61 nM. For the same molecule, the “Pharmacokinetic properties (conclusion in words)” value (“Pharmacokinetic properties” below) in data set [4] is “good pharmacokinetic properties”. In addition, the AUC(0-inf) in data set [4] worked out at 18500 ng·h/mL. In data set [4], the Cmax was determined as 1190 ng/mL.
As to `NC(=O)c1nc(N2CCC(N)(c3ccccc3)CC2)nc2[nH]nc(-c3ccnc(Cl)c3Cl)c12` [Example 27, 6-(4-amino-4-phenylpiperidin-1-yl)-3-(2,3-dichloropyridin-4-yl)-1H-pyrazolo[3,4-d]pyrimidine-4-carboxamide], the IC50 in data set [1] was 7 nM; in data set [2] it was 37 nM; in data set [3] it was 167 nM. Also, the “Growth inhibition effect on NCI-H358 tumor-bearing mice (in words)” value in data set [5] (30 mg/kg) is “obvious growth inhibition effects”. Also, the Body weight change result in data set [5] (30 mg/kg po qd for 10 days) is on record as “no obvious change in body weight”. For the same molecule, the “Tumor volume (mm^3, mean value ± standard error) Day 0” value in data set [5] (Day 0 (at grouping), 30 mg/kg po qd group) was determined as 138 ± 14 mm^3. Besides, the “TGI % Day 10” value in data set [5] (setting [7]) is listed as 55.6%. The “Tumor volume (mm^3, mean value ± standard error) Day 10” value in data set [5] (setting [7]) is on record as 155 ± 22 mm^3. The “Pharmacokinetic properties” value in data set [6] is reported as “good pharmacokinetic properties”. Also, in data set [6] (mouse, plasma, read-out: Area under curve AUC0-∞), the AUC(0-inf) amounted to 2720 ng·h/mL. In addition, in data set [6] (mouse, plasma, read-out: Blood concentration Cmax), the Cmax was 285 ng/mL. Also, the Tmax (as a rule, the time at which the peak concentration occurs) in data set [6] (mouse, plasma, read-out: Peak time Tmax) was 8 h.
As for `NC(=O)c1nc(N2CCC3(CC2)Cc2ccccc2[C@H]3N)nc2[nH]nc(-c3cccc(Cl)c3Cl)c12` [Example 5, (S)-6-(1-amino-1,3-dihydrospiro[indene-2,4′-piperidin]-1′-yl)-3-(2,3-dichlorophenyl)-1H-pyrazolo[3,4-d]pyrimidine-4-carboxamide], in data set [1], the IC50 amounted to 1 nM. Also, the IC50 in data set [2] was determined as 27 nM. The molecule further had an IC50 in data set [3] of 143 nM. In data set [4], the “Pharmacokinetic properties” value is recorded as “good pharmacokinetic properties”, the AUC(0-inf) is 31300 ng·h/mL and the Cmax stood at 2110 ng/mL.
